Results reported in ChEMBL document CHEMBL1133287, “Preparation and evaluation of 1,3-diaminocyclopentane-linked dihydropyrimidinone derivatives as selective alpha1a-receptor antagonists” (Bioorg Med Chem Lett, 2000).

Tests used:
Format in all cases: cell-based
[1] = biological target: T1, Alpha-1A adrenergic receptor (Homo sapiens, UniProt P35348); assay: Displacement of [125I]HEAT from human Alpha-1A adrenergic receptor stably expressed in CHO cells
T1 sequence (P35348 whole entry): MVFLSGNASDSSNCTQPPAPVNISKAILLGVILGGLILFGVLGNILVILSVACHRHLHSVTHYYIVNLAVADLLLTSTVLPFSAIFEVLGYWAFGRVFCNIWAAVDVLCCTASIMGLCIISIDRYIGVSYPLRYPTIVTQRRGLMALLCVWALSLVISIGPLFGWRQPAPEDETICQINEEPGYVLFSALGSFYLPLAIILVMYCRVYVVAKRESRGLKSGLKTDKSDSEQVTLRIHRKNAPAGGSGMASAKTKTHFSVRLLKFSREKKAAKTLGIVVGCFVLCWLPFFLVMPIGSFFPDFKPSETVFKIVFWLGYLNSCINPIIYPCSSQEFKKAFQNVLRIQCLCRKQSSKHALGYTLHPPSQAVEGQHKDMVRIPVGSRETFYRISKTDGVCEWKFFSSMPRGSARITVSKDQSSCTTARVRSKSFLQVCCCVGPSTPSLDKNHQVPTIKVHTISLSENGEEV

[2] = biological target: T2, Alpha-1B adrenergic receptor (Homo sapiens, UniProt P35368); assay: Displacement of [125I]HEAT from human Alpha-1B adrenergic receptor stably expressed in LM cells
T2 sequence (P35368 whole entry): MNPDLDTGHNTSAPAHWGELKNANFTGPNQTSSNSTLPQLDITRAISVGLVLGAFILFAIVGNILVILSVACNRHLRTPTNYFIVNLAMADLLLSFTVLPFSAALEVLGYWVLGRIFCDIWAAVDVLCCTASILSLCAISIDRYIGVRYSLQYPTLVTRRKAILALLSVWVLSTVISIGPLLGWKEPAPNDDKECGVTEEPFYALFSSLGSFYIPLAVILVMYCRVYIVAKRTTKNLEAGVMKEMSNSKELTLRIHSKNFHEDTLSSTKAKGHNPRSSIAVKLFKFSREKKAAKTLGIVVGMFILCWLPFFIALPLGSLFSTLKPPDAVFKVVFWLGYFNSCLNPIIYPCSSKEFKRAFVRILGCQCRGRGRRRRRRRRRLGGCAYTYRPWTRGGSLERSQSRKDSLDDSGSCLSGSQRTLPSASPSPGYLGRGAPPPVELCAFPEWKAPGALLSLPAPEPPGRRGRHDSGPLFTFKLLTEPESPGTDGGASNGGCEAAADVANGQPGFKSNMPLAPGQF

[3] = biological target: T3, Alpha-1D adrenergic receptor (Homo sapiens, UniProt P25100); assay: Displacement of [125I]HEAT from human Alpha-1D adrenergic receptor stably expressed in HL cells
T3 sequence (P25100 whole entry): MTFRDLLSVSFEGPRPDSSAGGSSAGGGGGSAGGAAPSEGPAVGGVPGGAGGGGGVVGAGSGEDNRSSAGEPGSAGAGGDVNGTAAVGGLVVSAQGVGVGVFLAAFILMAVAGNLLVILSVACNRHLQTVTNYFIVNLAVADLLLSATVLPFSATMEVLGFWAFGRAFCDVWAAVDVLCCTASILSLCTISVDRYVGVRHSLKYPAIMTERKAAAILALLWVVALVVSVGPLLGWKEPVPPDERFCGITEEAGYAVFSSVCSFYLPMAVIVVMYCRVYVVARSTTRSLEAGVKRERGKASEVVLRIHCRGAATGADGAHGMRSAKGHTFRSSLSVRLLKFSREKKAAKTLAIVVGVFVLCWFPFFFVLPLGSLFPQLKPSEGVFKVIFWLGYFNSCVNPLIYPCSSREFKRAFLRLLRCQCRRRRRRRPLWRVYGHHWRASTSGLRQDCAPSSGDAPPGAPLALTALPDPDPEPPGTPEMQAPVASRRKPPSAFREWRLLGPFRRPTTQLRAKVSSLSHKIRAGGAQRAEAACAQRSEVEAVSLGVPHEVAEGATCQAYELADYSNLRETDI

SMILES	Ki [1]	Ki [2]	Ki [3]
COCC1=C(C(=O)OC)[C@H](c2ccc(F)c(F)c2)N(C(=O)N[C@H]2CC[C@@H](N3CCC(C#N)(c4ccccc4)CC3)C2)C(=O)N1	0.0024 µM	0.73 µM	0.66 µM
COCC1=C(C(=O)OC)[C@H](c2ccc(F)c(F)c2)N(C(=O)N[C@H]2CC[C@@H](N3CCN(c4ccccc4C#N)CC3)C2)C(=O)N1	0.00044 µM	0.051 µM	0.039 µM
COCC1=C(C(=O)OC)[C@H](c2ccc(F)c(F)c2)N(C(=O)N[C@H]2CC[C@H](N3CCC(C#N)(c4ccccc4)CC3)C2)C(=O)N1	0.0023 µM	0.12 µM	0.095 µM
COCC1=C(C(=O)OC)[C@H](c2ccc(F)c(F)c2)N(C(=O)N[C@@H]2CC[C@@H](N3CCC(c4ccccn4)CC3)C2)C(=O)N1	0.00038 µM	0.35 µM	0.5 µM
COCC1=C(C(=O)OC)[C@H](c2ccc(F)c(F)c2)N(C(=O)N[C@H]2CC[C@H](N3CCC(c4ccccn4)CC3)C2)C(=O)N1	0.0083 µM	0.13 µM	0.17 µM
COCC1=C(C(=O)OC)[C@H](c2ccc(F)c(F)c2)N(C(=O)N[C@@H]2CC[C@@H](N3CCN(c4ccccc4C#N)CC3)C2)C(=O)N1	0.0009 µM	0.014 µM	0.0054 µM
COCC1=C(C(=O)OC)[C@H](c2ccc(F)c(F)c2)N(C(=O)N[C@H]2CC[C@@H](N3CCC(c4ccccn4)CC3)C2)C(=O)N1	0.0047 µM	0.29 µM	0.55 µM

Further molecules by falling Ki [1], results first:

Ki [1]	Ki [2]	Ki [3]	SMILES
0.0048 µM	0.015 µM	0.009 µM	COCC1=C(C(=O)OC)[C@H](c2ccc(F)c(F)c2)N(C(=O)N[C@H]2CC[C@H](N3CCN(c4ccccc4C#N)CC3)C2)C(=O)N1
0.0024 µM	0.036 µM	0.011 µM	COCC1=C(C(=O)OC)[C@H](c2ccc(F)c(F)c2)N(C(=O)N[C@H]2CC[C@H](N3CCC(c4ccccc4C#N)CC3)C2)C(=O)N1
0.0016 µM	0.028 µM	0.0075 µM	COCC1=C(C(=O)OC)[C@H](c2ccc(F)c(F)c2)N(C(=O)N[C@@H]2CC[C@H](N3CCN(c4ccccc4C#N)CC3)C2)C(=O)N1
0.001 µM	1.9 µM	0.62 µM	COCC1=C(C(=O)OC)[C@H](c2ccc(F)c(F)c2)N(C(=O)N[C@@H]2CC[C@H](N3CCC(C#N)(c4ccccc4)CC3)C2)C(=O)N1
0.0006 µM	0.07 µM	0.097 µM	COCC1=C(C(=O)OC)[C@H](c2ccc(F)c(F)c2)N(C(=O)N[C@H]2CC[C@@H](N3CCC(c4ccccc4C#N)CC3)C2)C(=O)N1
0.00046 µM	0.091 µM	0.031 µM	COCC1=C(C(=O)OC)[C@H](c2ccc(F)c(F)c2)N(C(=O)N[C@@H]2CC[C@@H](N3CCC(c4ccccc4C#N)CC3)C2)C(=O)N1
0.0004 µM	1.3 µM	0.32 µM	COCC1=C(C(=O)OC)[C@H](c2ccc(F)c(F)c2)N(C(=O)N[C@@H]2CC[C@H](N3CCC(c4ccccn4)CC3)C2)C(=O)N1
0.00037 µM	0.21 µM	0.66 µM	COCC1=C(C(=O)OC)[C@H](c2ccc(F)c(F)c2)N(C(=O)N[C@@H]2CC[C@@H](N3CCC(C#N)(c4ccccc4)CC3)C2)C(=O)N1
0.00024 µM	0.13 µM	0.016 µM	COCC1=C(C(=O)OC)[C@H](c2ccc(F)c(F)c2)N(C(=O)N[C@@H]2CC[C@H](N3CCC(c4ccccc4C#N)CC3)C2)C(=O)N1
